The values that follow come from ChEMBL document CHEMBL1201862, “PubChem BioAssay data set” (2004).

Some test systems named below: UACC-257; HT-29; NCI-H226; MDA-MB-435; BT-549; EKVX; RPMI-8226; OVCAR-8; HCT-15; SK-MEL-2; TK-10; OVCAR-5; ACHN; CAKI-1; SNB-19; MDA-MB-231; NCI-H460; UACC-62; Hs-578T; T47D.
Common to all, as to assay: DTP human tumour cell line panel, 48 h

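96-well plates; 48 h exposure; 5 concentrations. Endpoints by linear interpolation between flanking doses. Not reached: highest tested concentration assigned. GI50: concentration for 50% inhibition of growth.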 Activity calls are given as the source filed them. Cut-off read from the data, not from the text of the source: active = GI50 up to about 1.1 µM and inactive = higher.

`CC1(F)C=CC(=O)C=C1`: the GI50 in the assay with UACC-257 is 71.8 µM (inactive); with HT-29 it was 46.5 µM (inactive); in the assay on NCI-H226 it was 86.9 µM (inactive); in the assay with MDA-MB-435 it was 35.7 µM (inactive); in the assay with BT-549, > 100 µM (inactive); with EKVX, > 100 µM (inactive). Besides, the GI50 is 29.4 µM (inactive) in the assay on RPMI-8226; 19.6 µM (inactive) with OVCAR-8; 20 µM in the assay with HCT-15; > 100 µM (inactive) in the assay on SK-MEL-2; 38.9 µM (inactive) with TK-10; 58.7 µM (inactive) with OVCAR-5. The GI50 with ACHN was 59.6 µM (inactive); in the assay with CAKI-1, 55.7 µM (inactive); in the assay on SNB-19, > 100 µM (inactive); in the assay on MDA-MB-231 it was 40.1 µM (inactive); with NCI-H460, > 100 µM (inactive); in the assay with UACC-62, 44.9 µM (inactive). The GI50 in the assay on Hs-578T is > 100 µM (inactive).

Turning to `O=C1Nc2ccccc2[C@]12C[C@H]2c1ccccn1`, the GI50 was > 100 µM (inactive) in the assay on UACC-257; 62.8 µM (inactive) with NCI-H226; > 100 µM (inactive) in the assay with MDA-MB-435; > 100 µM (inactive) with BT-549; > 100 µM (inactive) with EKVX; > 100 µM (inactive) in the assay with RPMI-8226. Moreover, the GI50 in the assay with HCT-15 is > 100 µM; in the assay with SK-MEL-2 it was > 100 µM (inactive); in the assay on TK-10, > 100 µM (inactive); with OVCAR-5, > 100 µM (inactive); in the assay with T47D, > 100 µM (inactive); in the assay on ACHN, > 100 µM (inactive). Besides, the GI50 in the assay with CAKI-1, in the assay with SNB-19, in the assay on MDA-MB-231, with NCI-H460 and in the assay on UACC-62 was > 100 µM (inactive) in each case.

With `Cc1cnoc1NS(=O)(=O)c1ccc(Nc2nnc(/C=C/c3c(O)ccc4ccccc34)c(=O)n2N)cc1`, the GI50 in the assay on HT-29 was 58.6 µM (inactive); with MDA-MB-435, 26.7 µM (inactive); with BT-549 it was 18.7 µM (inactive); in the assay with EKVX, 35.9 µM (inactive); in the assay with RPMI-8226, 20.2 µM (inactive); in the assay on OVCAR-8 it was 16.4 µM (inactive). Moreover, the GI50 with HCT-15 was 6.37 µM; with OVCAR-5 it was 40.1 µM (inactive); in the assay on T47D, 20.1 µM (inactive); in the assay on ACHN, 22.2 µM (inactive); in the assay on CAKI-1, 27.5 µM (inactive); in the assay on SNB-19, 65.2 µM (inactive). The GI50 with UACC-62 is 24.5 µM (inactive); in the assay with Hs-578T, 29.2 µM (inactive).

Consider `C1COCCN1.CN(C)c1ccc(-c2c(C#N)c(N)nc(S)c2C#N)cc1`, for which the GI50 in the assay on UACC-257 is 82.4 µM (inactive); in the assay with HT-29, > 100 µM (inactive); in the assay on NCI-H226 it was 22.6 µM (inactive); with MDA-MB-435, 83.4 µM (inactive); with BT-549, 83 µM (inactive); in the assay on EKVX it was > 100 µM (inactive). The GI50 is > 100 µM (inactive) in the assay on OVCAR-8; > 100 µM in the assay with HCT-15; 34.4 µM (inactive) with SK-MEL-2; > 100 µM (inactive) in the assay with TK-10; > 100 µM (inactive) in the assay on OVCAR-5; > 100 µM (inactive) in the assay on ACHN. The GI50 with CAKI-1 is 43.9 µM (inactive); in the assay with SNB-19, 39.9 µM (inactive); in the assay with MDA-MB-231, 34.4 µM (inactive); in the assay on NCI-H460, 40.2 µM (inactive); with UACC-62 it was 35 µM (inactive); in the assay on Hs-578T, 4.57 µM (inactive).

Consider `OC1c2[nH]c3ccccc3c2CCN2CCCCC12` (stereo not given), for which the GI50 in the assay on UACC-257, with HT-29, with NCI-H226, in the assay on MDA-MB-435, in the assay with BT-549 and in the assay on EKVX was > 100 µM (inactive) throughout. Also, the GI50 was > 100 µM (inactive) in the assay with RPMI-8226; > 100 µM (inactive) in the assay with OVCAR-8; > 100 µM in the assay on HCT-15; > 100 µM (inactive) in the assay with SK-MEL-2; > 100 µM (inactive) with TK-10; > 100 µM (inactive) with OVCAR-5. Further, the GI50 with T47D, in the assay on ACHN, with CAKI-1, in the assay with SNB-19, in the assay on MDA-MB-231 and in the assay with NCI-H460 was > 100 µM (inactive) throughout. For the same compound, the GI50 with UACC-62 is > 100 µM (inactive).

`CC(C(N)=O)N(C)C(=O)c1cnc2ccccc2c1` (stereo not given): the GI50 with UACC-257, with HT-29, in the assay on NCI-H226, in the assay on MDA-MB-435, in the assay with BT-549 and in the assay on RPMI-8226 was > 100 µM (inactive) throughout. Also, the GI50 in the assay with OVCAR-8 is > 100 µM (inactive); with HCT-15, > 100 µM; in the assay with SK-MEL-2, > 100 µM (inactive); with TK-10 it was > 100 µM (inactive); with OVCAR-5, > 100 µM (inactive); in the assay with T47D it was > 100 µM (inactive). Moreover, the GI50 in the assay on ACHN, in the assay on CAKI-1, in the assay on SNB-19, in the assay with MDA-MB-231, with NCI-H460 and with UACC-62 was > 100 µM (inactive) each time.

As to `CC(C)(C)c1ccccc1N1C(=O)c2ccc3c4c(ccc(c24)C1=O)N(c1ccccc1C(C)(C)C)C3=O`, the GI50 is > 100 µM (inactive) with UACC-257; > 100 µM (inactive) with HT-29; > 100 µM (inactive) with MDA-MB-435; > 100 µM (inactive) in the assay with BT-549; 14.8 µM (inactive) in the assay with EKVX; > 100 µM (inactive) in the assay with RPMI-8226. Moreover, the GI50 was > 100 µM (inactive) with OVCAR-8; > 100 µM in the assay on HCT-15; > 100 µM (inactive) in the assay with SK-MEL-2; > 100 µM (inactive) with OVCAR-5; > 100 µM (inactive) with ACHN; > 100 µM (inactive) with CAKI-1. Besides, the GI50 was > 100 µM (inactive) in the assay with SNB-19; > 100 µM (inactive) in the assay on MDA-MB-231; > 100 µM (inactive) in the assay with NCI-H460; > 100 µM (inactive) in the assay on UACC-62; 3.03 µM (inactive) in the assay on Hs-578T.

Turning to `COc1ccc2nc(-c3ccc(N)cc3)sc2c1`, the GI50 is > 100 µM (inactive) in the assay on UACC-257; 66.5 µM (inactive) in the assay on HT-29; 34.2 µM (inactive) with NCI-H226; > 100 µM (inactive) in the assay with MDA-MB-435; > 100 µM (inactive) in the assay with BT-549; 32.1 µM (inactive) in the assay on EKVX. For the same compound, the GI50 in the assay on OVCAR-8 was 52.5 µM (inactive); with HCT-15 it was 50.5 µM; with SK-MEL-2 it was > 100 µM (inactive); in the assay on TK-10, > 100 µM (inactive); in the assay with OVCAR-5, > 100 µM (inactive); in the assay with ACHN it was 51.6 µM (inactive). The GI50 was > 100 µM (inactive) with CAKI-1; 18.5 µM (inactive) in the assay with SNB-19; 81.8 µM (inactive) with MDA-MB-231; 54 µM (inactive) in the assay on NCI-H460; > 100 µM (inactive) in the assay on UACC-62; 34.6 µM (inactive) in the assay on Hs-578T.
